Results published in ChEMBL document CHEMBL1201862, “PubChem BioAssay data set” (2004).
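Cells were grown in 96-well plates and exposed to each compound for 48 hours at five concentrations; endpoints were interpolated linearly between bracketing concentrations, or set to the highest concentration if not reached. At the GI50, growth is halved.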 Calls of active or inactive are those of the source. Cut-off read from the data, not from the text of the source: active = GI50 up to about 1.1 µM and inactive = higher.

Key:
Assay in all cases: DTP human tumour cell line panel, 48 h
A549 = tested on: A549
BT-549 = tested on: BT-549
CCRF-CEM = tested on: CCRF-CEM
COLO 205 = tested on: COLO 205
DU-145 = tested on: DU-145
EKVX = tested on: EKVX
HCC 2998 = tested on: HCC 2998
HCT-116 = tested on: HCT-116
HCT-15 = tested on: HCT-15
HL-60 = tested on: HL-60
HOP-62 = tested on: HOP-62
HOP-92 = tested on: HOP-92
HT-29 = tested on: HT-29
IGROV-1 = tested on: IGROV-1
K562 = tested on: K562
KM12 = tested on: KM12
LOX IMVI = tested on: LOX IMVI
M14 = tested on: M14
MCF7 = tested on: MCF7
MDA-MB-231 = tested on: MDA-MB-231
MDA-MB-435 = tested on: MDA-MB-435
MDA-N = tested on: MDA-N
MOLT-4 = tested on: MOLT-4
NCI-H23 = tested on: NCI-H23
NCI-H460 = tested on: NCI-H460
NCI-H522 = tested on: NCI-H522
OVCAR-3 = tested on: OVCAR-3
OVCAR-4 = tested on: OVCAR-4
OVCAR-5 = tested on: OVCAR-5
OVCAR-8 = tested on: OVCAR-8
PC-3 = tested on: PC-3
RPMI-8226 = tested on: RPMI-8226
SF-268 = tested on: SF-268
SF-295 = tested on: SF-295
SF-539 = tested on: SF-539
SK-MEL-28 = tested on: SK-MEL-28
SK-MEL-5 = tested on: SK-MEL-5
SK-OV-3 = tested on: SK-OV-3
SN12C = tested on: SN12C
SNB-19 = tested on: SNB-19
SNB-75 = tested on: SNB-75
SR = tested on: SR
SW-620 = tested on: SW-620
T47D = tested on: T47D
TK-10 = tested on: TK-10
U-251 = tested on: U-251
UACC-257 = tested on: UACC-257
UACC-62 = tested on: UACC-62
UO-31 = tested on: UO-31
786-0 = tested on: 786-0
A498 = tested on: A498
ACHN = tested on: ACHN
Hs-578T = tested on: Hs-578T
Malme-3M = tested on: Malme-3M
NCI-H226 = tested on: NCI-H226
NCI/ADR-RES = tested on: NCI/ADR-RES
RXF 393 = tested on: RXF 393
SK-MEL-2 = tested on: SK-MEL-2

CCOc1ncn(-c2ccc(NC(=S)Nc3cccc(O)c3)cc2)n1
GI50 (A549): > 100 µM (inactive)
GI50 (BT-549): > 100 µM (inactive)
GI50 (CCRF-CEM): > 100 µM (inactive)
GI50 (COLO 205): > 100 µM (inactive)
GI50 (DU-145): > 100 µM (inactive)
GI50 (EKVX): > 100 µM (inactive)
GI50 (HCC 2998): > 100 µM (inactive)
GI50 (HCT-116): > 100 µM (inactive)
GI50 (HCT-15): > 100 µM
GI50 (HL-60): > 100 µM (inactive)
GI50 (HOP-62): > 100 µM (inactive)
GI50 (HOP-92): > 100 µM (inactive)
GI50 (HT-29): > 100 µM (inactive)
GI50 (IGROV-1): > 100 µM (inactive)
GI50 (K562): > 100 µM (inactive)
GI50 (KM12): > 100 µM (inactive)
GI50 (LOX IMVI): > 100 µM (inactive)
GI50 (M14): > 100 µM (inactive)
GI50 (MCF7): > 100 µM (inactive)
GI50 (MDA-MB-231): > 100 µM (inactive)
GI50 (MDA-MB-435): > 100 µM (inactive)
GI50 (MDA-N): > 100 µM (inactive)
GI50 (MOLT-4): > 100 µM (inactive)
GI50 (NCI-H23): > 100 µM (inactive)
GI50 (NCI-H460): > 100 µM (inactive)
GI50 (NCI-H522): > 100 µM (inactive)
GI50 (OVCAR-3): > 100 µM (inactive)
GI50 (OVCAR-4): > 100 µM (inactive)
GI50 (OVCAR-5): > 100 µM (inactive)
GI50 (OVCAR-8): > 100 µM (inactive)
GI50 (PC-3): > 100 µM (inactive)
GI50 (RPMI-8226): > 100 µM (inactive)
GI50 (SF-268): > 100 µM (inactive)
GI50 (SF-295): > 100 µM (inactive)
GI50 (SF-539): > 100 µM (inactive)
GI50 (SK-MEL-28): > 100 µM (inactive)
GI50 (SK-MEL-5): > 100 µM (inactive)
GI50 (SK-OV-3): > 100 µM (inactive)
GI50 (SN12C): > 100 µM (inactive)
GI50 (SNB-19): > 100 µM (inactive)
GI50 (SNB-75): 40.4 µM (inactive)
GI50 (SR): > 100 µM (inactive)
GI50 (SW-620): > 100 µM (inactive)
GI50 (T47D): > 100 µM (inactive)
GI50 (TK-10): > 100 µM (inactive)
GI50 (U-251): > 100 µM (inactive)
GI50 (UACC-257): > 100 µM (inactive)
GI50 (UACC-62): > 100 µM (inactive)
GI50 (UO-31): > 100 µM (inactive)

Cc1c2c(n(C)c1C)C(=O)C1C(C2=O)C2(C)c3ccccc3C1(C)c1ccccc12 (centres undefined)
GI50 (786-0): > 100 µM (inactive)
GI50 (A498): > 100 µM (inactive)
GI50 (ACHN): > 100 µM (inactive)
GI50 (BT-549): > 100 µM (inactive)
GI50 (CCRF-CEM): > 100 µM (inactive)
GI50 (COLO 205): > 100 µM (inactive)
GI50 (DU-145): > 100 µM (inactive)
GI50 (EKVX): > 100 µM (inactive)
GI50 (HCT-116): > 100 µM (inactive)
GI50 (HCT-15): > 100 µM
GI50 (HL-60): > 100 µM (inactive)
GI50 (HOP-62): > 100 µM (inactive)
GI50 (HT-29): > 100 µM (inactive)
GI50 (Hs-578T): > 100 µM (inactive)
GI50 (IGROV-1): > 100 µM (inactive)
GI50 (K562): > 100 µM (inactive)
GI50 (KM12): > 100 µM (inactive)
GI50 (LOX IMVI): > 100 µM (inactive)
GI50 (M14): > 100 µM (inactive)
GI50 (MCF7): > 100 µM (inactive)
GI50 (MDA-MB-435): > 100 µM (inactive)
GI50 (MOLT-4): > 100 µM (inactive)
GI50 (Malme-3M): > 100 µM (inactive)
GI50 (NCI-H226): > 100 µM (inactive)
GI50 (NCI-H23): > 100 µM (inactive)
GI50 (NCI-H460): > 100 µM (inactive)
GI50 (NCI/ADR-RES): > 100 µM (inactive)
GI50 (OVCAR-3): > 100 µM (inactive)
GI50 (OVCAR-5): > 100 µM (inactive)
GI50 (OVCAR-8): > 100 µM (inactive)
GI50 (PC-3): > 100 µM (inactive)
GI50 (RPMI-8226): > 100 µM (inactive)
GI50 (RXF 393): > 100 µM (inactive)
GI50 (SF-268): > 100 µM (inactive)
GI50 (SF-295): > 100 µM (inactive)
GI50 (SF-539): > 100 µM (inactive)
GI50 (SK-MEL-28): > 100 µM (inactive)
GI50 (SK-MEL-2): > 100 µM (inactive)
GI50 (SK-MEL-5): > 100 µM (inactive)
GI50 (SK-OV-3): > 100 µM (inactive)
GI50 (SNB-19): > 100 µM (inactive)
GI50 (SNB-75): > 100 µM (inactive)
GI50 (SR): 24.4 µM (inactive)
GI50 (SW-620): > 100 µM (inactive)
GI50 (T47D): > 100 µM (inactive)
GI50 (TK-10): > 100 µM (inactive)
GI50 (U-251): > 10 µM (inactive)
GI50 (UACC-257): > 100 µM (inactive)
GI50 (UACC-62): > 100 µM (inactive)
GI50 (UO-31): > 100 µM (inactive)
